≈ marks a conversion by molar mass, not a printed value. Calls of active or inactive are those of the source. The calls are words filed in the database; no cut-off is given here.
Key:
Assay type in all cases: functional
[1] = test system: Rhizopus arrhizus; test: Antifungal activity against Rhizopus oryzae MTCC 262 assessed as growth inhibition at 100 ug/mL after 3 to 4 days by agar diffusion method; settings: read-out: DIZ
[2] = test system: Aspergillus niger; test: Antifungal activity against Aspergillus niger ATCC 16404 assessed as growth inhibition at 100 ug/mL after 3 to 4 days by agar diffusion method; settings: read-out: DIZ
[3] = test system: Candida albicans; test: Antifungal activity against Candida albicans ATCC 10231 assessed as growth inhibition at 100 ug/mL after 3 to 4 days by agar diffusion method; settings: read-out: DIZ
[4] = test system: Pseudomonas aeruginosa; test: Antibacterial activity against Pseudomonas aeruginosa ATCC 27853 assessed as growth inhibition at 100 ug/mL after 24 hr by cup-plate method; settings: ATCC 27853, 24 h, read-out: DIZ
[5] = test system: Escherichia coli; test: Antibacterial activity against Escherichia coli ATCC 25922 assessed as growth inhibition at 100 ug/mL after 24 hr by cup-plate method; settings: ATCC 25922, 24 h, read-out: DIZ
[6] = test system: Staphylococcus aureus; test: Antibacterial activity against Staphylococcus aureus ATCC 25923 assessed as growth inhibition at 100 ug/mL after 24 hr by cup-plate method; settings: ATCC 25923, 24 h, read-out: DIZ
[7] = test system: Rhizopus arrhizus; test: Antifungal activity against Rhizopus oryzae MTCC 262 assessed as growth inhibition after 48 hr by broth dilution method
[8] = test system: Aspergillus niger; test: Antifungal activity against Aspergillus niger ATCC 16404 assessed as growth inhibition after 48 hr by broth dilution method
[9] = test system: Candida albicans; test: Antifungal activity against Candida albicans ATCC 10231 assessed as growth inhibition after 48 hr by broth dilution method
[10] = test system: Pseudomonas aeruginosa; test: Antibacterial activity against Pseudomonas aeruginosa ATCC 27853 assessed as growth inhibition after 24 hr by broth dilution method
[11] = test system: Escherichia coli; test: Antibacterial activity against Escherichia coli ATCC 25922 assessed as growth inhibition after 24 hr by broth dilution method
[12] = test system: Staphylococcus aureus; test: Antibacterial activity against Staphylococcus aureus ATCC 25923 assessed as growth inhibition after 24 hr by broth dilution method; settings: ATCC 25923, 24 h

SMILES | zone of inhibition at 100 µg/mL [1] [mm] | zone of inhibition at 100 µg/mL [2] [mm] | zone of inhibition at 100 µg/mL [3] [mm] | zone of inhibition at 100 µg/mL [4] [mm] | zone of inhibition at 100 µg/mL [5] [mm] | zone of inhibition at 100 µg/mL [6] [mm] | MIC [7] | MIC [8] | MIC ([9]; ATCC 10231, 48 h) [µg/mL] | MIC [10] | MIC [11] | MIC [12] [µg/mL] | MIC ([7]; MTCC 262, 48 h) [µg/mL] | MIC ([11]; ATCC 25922, 24 h) [µg/mL] | MIC ([8]; ATCC 16404, 48 h) [µg/mL] | MIC ([10]; ATCC 27853, 24 h) [µg/mL] | MIC [9]
CC(=O)c1cc(C(C)=O)c(OC(=O)c2cccc([N+](=O)[O-])c2)cc1OC(=O)c1cccc([N+](=O)[O-])c1 | < 5 | < 5 | 5 | < 5 | < 5 | 5 | inactive | inactive | > 100 | inactive | inactive | > 100 |  |  |  |  | 
CC(=O)c1cc(C(C)=O)c(OC(=O)c2ccc(Cl)cc2)cc1OC(=O)c1ccc(Cl)cc1 | 5 | < 5 | 5 | < 5 | 5 | 5 |  | inactive | > 100 | inactive |  | > 100 | > 100 | > 100 |  |  | 
O=c1cc(-c2cccc(Cl)c2)oc2cc3oc(-c4cccc(Cl)c4)cc(=O)c3cc12 | 10 | 15 | 10 | 15 | 10 | 15 |  |  | 50 (≈ 115 µM) |  |  | 25 (≈ 57.4 µM) | 50 (≈ 115 µM) | 50 (≈ 115 µM) | 25 (≈ 57.4 µM) | 25 (≈ 57.4 µM) | 
CC(=O)c1cc(C(C)=O)c(OC(=O)c2ccccc2[N+](=O)[O-])cc1OC(=O)c1ccccc1[N+](=O)[O-] | < 5 | < 5 | < 5 | < 5 | 5 | 10 | inactive | inactive |  | inactive |  | 50 (≈ 102 µM) |  | > 100 |  |  | inactive
CCN(CC)c1ccc(/C=C/C(=O)c2cc(C(=O)/C=C/c3ccc(N(CC)CC)cc3)c(O)cc2O)cc1 | 5 | 5 | 10 | 5 | 10 | 10 |  |  | 50 (≈ 97.5 µM) |  |  | 50 (≈ 97.5 µM) | > 100 | 50 (≈ 97.5 µM) | > 100 | > 100 | 
CC(=O)c1cc(C(C)=O)c(OC(=O)c2cccc(Cl)c2)cc1OC(=O)c1cccc(Cl)c1 | < 5 | < 5 | < 5 | < 5 | < 5 | 5 | inactive | inactive |  | inactive | inactive | > 100 |  |  |  |  | inactive
Cc1ccccc1-c1cc(=O)c2cc3c(=O)cc(-c4ccccc4C)oc3cc2o1 | 5 | 5 | 10 | 10 | 5 | 10 |  |  | 50 (≈ 127 µM) |  |  | 50 (≈ 127 µM) | > 100 | > 100 | > 100 | 50 (≈ 127 µM) | 
COc1cc(/C=C/C(=O)c2cc(C(=O)/C=C/c3cc(OC)c(OC)c(OC)c3)c(O)cc2O)cc(OC)c1OC | 10 | 10 | 15 | 5 | 10 | 10 |  |  | 25 (≈ 45.4 µM) |  |  | 50 (≈ 90.8 µM) | 50 (≈ 90.8 µM) | 50 (≈ 90.8 µM) | 50 (≈ 90.8 µM) | > 100 | 
COc1cc(OC)c(C(=O)/C=C/c2ccco2)cc1C(=O)/C=C/c1ccco1 | 5 | 10 | 10 | < 5 | < 5 | 10 |  |  | 50 (≈ 132 µM) | inactive | inactive | 50 (≈ 132 µM) | > 100 |  | 50 (≈ 132 µM) |  | 
Cc1ccccc1/C=C/C(=O)c1cc(C(=O)/C=C/c2ccccc2C)c(O)cc1O | < 5 | < 5 | 5 | 5 | < 5 | 5 | inactive | inactive | > 100 |  | inactive | > 100 |  |  |  | > 100 | 

From ChEMBL document CHEMBL3046640, “Synthesis and antimicrobial activity of bischalcone derivatives” (2013)
